We go through 1 compound from publication PMC8323099 (Journal of Agricultural and Food Chemistry, 2021).

The assay has as its target T1, Pru p 1.0101 (Prunus persica, UniProt Q2I6V8).
T1 construct: gene ypr-10
In words: biochemical.

T1 sequence (Q2I6V8 1-160): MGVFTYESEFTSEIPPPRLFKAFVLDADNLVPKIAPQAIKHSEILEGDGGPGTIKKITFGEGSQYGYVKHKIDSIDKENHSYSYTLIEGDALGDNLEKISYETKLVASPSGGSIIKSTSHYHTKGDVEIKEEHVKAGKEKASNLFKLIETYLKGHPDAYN

Turning to `C/C(=C\CNc1ncnc2[nH]cnc12)CO` [trans-zeatin], the Kd (in general, the equilibrium constant for the complex coming apart) amounted to 1900 ± 400 µM.
